{
  "source": "patent US20260256909A1",
  "about": "“COMBINATION OF A BTN3A ACTIVATING ANTIBODY, A BCL2 INHIBITOR AND HYPOMETHYLATING AGENT FOR USE IN TREATING CANCER” (Imcheck Therapeutics, priority 2022, published 2026)",
  "key": {"[1]": {"system": "Vγ9Vδ2 T cells", "experiment": "Expression of activating and inhibitory receptors by Vγ9Vδ2 T cells in HD-PBMC", "format": "cell-based, human", "details": "for effect on ICT01-induced expression of activating and inhibitory receptors on Vγ9Vδ2 T cells: day 5, Venetoclax 0-0.1 μM, 5-Azacytidine 0-0.4 μM", "description": "Vγ9Vδ2 T cell functions are tightly regulated by activating (NKG2D and DNAM-1) and inhibitory receptors (PD-1, NKG2A, BTLA, TIM3). To assess the impact of Venetoclax and 5-Azacytidine treatment on the expression of these receptors by Vγ9Vδ2 T cells, frozen human PBMC from healthy donors (HD, n=6) were thawed and treated with ICT01 or its isotype control (hIgG1S) used at 1 μg/mL in the presence or absence of increasing concentrations of Venetoclax (0-0.1 μM), 5-Azacytidine (0-0.4 μM) or the combination in PBMC medium (RPMI 1640 Medium supplemented with 10% FBS, 1% Penicillin/Streptomycin, 1 mM Sodium Pyruvate and 50 IU/mL IL2). Cells were harvested on day 5, centrifuged at 1800 rpm for 5 minutes and then incubated 10 minutes at RT with 25 μl of FcR blocking reagent (Miltenyi Biotec) before adding 25 μL of the following antibody mix prepared in PBS+2% FBS+2 mM EDTA (FACS buffer): anti-CD4-BUV395, Vδ2-PE, CD3-PE-CF594 and CD8-A700 antibodies for the identification of immune subsets, anti-BTLA-BV421, PD1-BV650, DNAM-1-BV785, TIM3-BB515, NKG2A-PE-Vio770 and NKG2D-APC antibodies for the detection of inhibitory and activating receptors, and a viability marker (LIVE/DEAD™ Fixable Dead Cell Stain) was added to distinguish live from dead cells. Cells were incubated 20 minutes at 4° C. and washed 2 times in FACS buffer before flow cytometry analysis."}, "[2]": {"system": "Vγ9Vδ2 T cells", "experiment": "Survival of Vγ9Vδ2 T cells in HD-PBMC (Caspase3/7 and dead cell marker, flow cytometry)", "format": "cell-based, human", "details": "for reduced survival of Vγ9Vδ2 T cells compared to no Venetoclax condition: simultaneous treatment with ICT01 1 μg/mL", "description": "The effect of ICT01 on the survival of Vγ9Vδ2 T cells upon treatment with Bcl-2 family member inhibitors was assessed in Peripheral Blood Mononuclear Cells from Healthy Donors (HD-PBMC) using the apoptotic marker Caspase3/7 and a dead cell marker in flow cytometry analysis.\nPeripheral Blood Mononuclear Cells (PBMC) were isolated by Ficoll density gradient centrifugation of peripheral blood (EDTA-buffy coats) from healthy donors (HD, n=4-6), cultured in PBMC medium (RPMI 1640 Medium supplemented with 10% Fetal Bovine Serum (FBS), 1% Penicillin/Streptomycin and 1 mM Sodium Pyruvate) and treated with ICT01 or its isotype control (hIgG1S) used at 1 μg/mL in the presence or absence of increasing concentrations of Venetoclax (0-0.1 μM), 5-Azacytidine (0-0.4 μM) or the combination, or ABT-737 (0-1.875 μM), Navitoclax (0-1.875 μM) or MIK665 (0-1.875 μM). Cells were harvested on day 2, centrifuged at 1800 rpm for 5 minutes and then incubated 10 minutes at room temperature (RT) with 25 μl of FcR blocking reagent (Miltenyi Biotec) before adding 25 μL of the following antibody mix prepared in PBS+2% FBS+2 mM EDTA (FACS buffer): anti-CD4-BUV395, CD56-BV421, Vd2-PE, CD3-PE-CF594 and CD8-A700 antibodies for the identification of immune subsets, anti-CD25-BV650 and CD69-APC antibodies were added to monitor activation status of Vγ9Vδ2 T cells, and a viability marker (LIVE/DEAD™ Fixable Dead Cell Stain) was added to distinguish live from dead cells. Cells were incubated 20 minutes at room temperature (RT) and washed 2 times with FACS buffer. A Caspase3/7 Green detection reagent (ThermoFisher) was added to determine apoptosis and cells were incubated for 30 minutes at RT before flow cytometry analysis.\nIn a similar experiment, freshly isolated PBMC were stimulated with ICT01 or its isotype control hIgG1S for 1 day prior to a 2 day-treatment with Venetoclax (FIG. 3a). The number of live Vγ9Vδ2 T cells was assessed by flow cytometry at the end of the incubation time."}, "[3]": {"details": "0.01 μM Venetoclax, HD-PBMC, 48 h"}, "[4]": {"details": "0.1 μM Venetoclax, HD-PBMC, 48 h"}},
  "data": [
    {"compound": "Nc1ncn([C@@H]2O[C@H](CO)[C@@H](O)[C@H]2O)c(=O)n1", "note": "[5-Azacytidine, 4-amino-1-[(2R,3R,4S,5R)3,4-dihydroxy-5-(hydroxymethyl)oxolan-2-yl]-1,3,5-triazin-2-one]", "values": [
      {"measurement": "effect on ICT01-induced expression of activating and inhibitory receptors on Vγ9Vδ2 T cells", "setting": "[1]", "result": "unaffected"},
      {"measurement": "effect on the survival of Vγ9Vδ2 T cells", "setting": "[2]; HD-PBMC, 48 h, 5-Azacytidine 0-0.4 μM", "result": "no effect"}
    ]},
    {"compound": "CC1(C)CCC(CN2CCN(c3ccc(C(=O)NS(=O)(=O)c4ccc(NCC5CCOCC5)c([N+](=O)[O-])c4)c(Oc4cnc5[nH]ccc5c4)c3)CC2)=C(c2ccc(Cl)cc2)C1", "note": "[Venetoclax, 4-[4-[[2-(4-chlorophenyl)-4,4-dimethylcyclohexen-1-yl]methyl]piperazin-1-yl]-N-[3-nitro-4-(oxan-4-ylmethylamino)phenyl]sulfonyl-2-(1H-pyrrolo[2,3-b]pyridin-5-yloxy)benzamide]", "values": [
      {"measurement": "effect on ICT01-induced expression of activating and inhibitory receptors on Vγ9Vδ2 T cells", "setting": "[1]", "result": "unaffected"},
      {"measurement": "reduction of live cells (Vγ9Vδ2 T cells) compared to no Venetoclax condition", "setting": "[2]; [3]", "result": "~ 29%"},
      {"measurement": "reduced survival of Vγ9Vδ2 T cells compared to no Venetoclax condition", "setting": "[2]; [3]", "result": "~ 11%"},
      {"measurement": "reduction of live cells (Vγ9Vδ2 T cells) compared to no Venetoclax condition", "setting": "[2]; [4]", "result": "~ 49%"},
      {"measurement": "reduced survival of Vγ9Vδ2 T cells compared to no Venetoclax condition", "setting": "[2]; [4]", "result": "~ 30%"}
    ]},
    {"compound": "ICT01: humanized BTN3A activating antibody of mAb 7.2, heavy chain SEQ ID NO: 4, light chain SEQ ID NO: 6, silent IgG1 L247F/L248E/P350S", "values": [
      {"measurement": "expression of activating (NKG2D, DNAM-1) and inhibitory receptors (PD-1, NKG2A, BTLA, TIM3) on Vγ9Vδ2 T cells", "setting": "[1]; day 5, ICT01 1 μg/mL, 50 IU/mL IL2", "result": "increased expression"},
      {"measurement": "Venetoclax induced cell death of Vγ9Vδ2 T cells", "setting": "[2]; PBMC stimulated with ICT01 for 1 day prior to a 2 day-treatment with Venetoclax, vs hIgG1S", "result": "significantly reduced"}
    ]}
  ]
}
